Measured values from patent publication US7728003B2, “5-oxo-5,8-dihydro-pyrido-pyrimidines as inhibitors of c-fms kinase” (Janssen Pharmaceutica N.V., priority 2005, dated 2010).

Biological target: c-fms (Homo sapiens, UniProt P07333)
Test: c-fms autophosphorylation, fluorescence polarization competition immunoassay
Assay type: biochemical
Conditions: 10 nM c-fms, 1 mM ATP; for inhibition at 0.1 µM: test concentration 0.1 μM, read-out: c-fms Autophosphorylation Percent Inhibition, % @ 0.1 μM; for inhibition at 1 µM: test concentration 1 μM, read-out: c-fms Autophosphorylation Percent Inhibition, % @ 1 μM; for IC50: average of three independent measurements
Method: The assay buffer used was 100 mM 4-(2-hydroxyethyl)piperazine 1-ethanesulfonic acid (HEPES), pH 7.5, 1 mM 1,4-dithio-DL-threitol (DTT), 0.01% (v/v) Tween-20. Compounds were diluted in assay buffer containing 4% dimethylsulfoxide (DMSO) just prior to the assay. To each well, 5 μL of compound were added followed by the addition of 3 μL of a mix containing 33 nM c-fms and 16.7 mM MgCl2 (Sigma) in assay buffer. The kinase reaction was initiated by adding 2 μL of 5 mM ATP (Sigma) in assay buffer. The final concentrations in the assay were 10 nM c-fms, 1 mM ATP, 5 mM MgCl2, 2% DMSO. Control reactions were ran in each plate: in positive and negative control wells, assay buffer (made 4% in DMSO) was substituted for the compound; in addition, positive control wells received 1.2 μL of 50 mM ethylenediaminetetraaceticacid (EDTA).
The plates were incubated at room temperature for 45 min. At the end of the incubation, the reaction was quenched with 1.2 μL of 50 mM EDTA (EDTA was not added to the positive control wells at this point; see above). Following a 5-min incubation, each well received 10 μL of a 1:1:3 mixture of anti-phosphotyrosine antibody, 10X, PTK green tracer, 10X (vortexed), FP dilution buffer, respectively (all from PanVera, cat. # P2837). The plate was covered, incubated for 30 min at room temperature and the fluorescence polarization was read on the Analyst. The instrument settings were: 485 nm excitation filter; 530 nm emission filter; Z height: middle of well; G factor: 0.93.
The percent inhibition is shown in Table 1 at the indicated test concentration. The IC50 shown in Table 2 are averages of three independent measurements.

Sequence of c-fms (P07333 20-972): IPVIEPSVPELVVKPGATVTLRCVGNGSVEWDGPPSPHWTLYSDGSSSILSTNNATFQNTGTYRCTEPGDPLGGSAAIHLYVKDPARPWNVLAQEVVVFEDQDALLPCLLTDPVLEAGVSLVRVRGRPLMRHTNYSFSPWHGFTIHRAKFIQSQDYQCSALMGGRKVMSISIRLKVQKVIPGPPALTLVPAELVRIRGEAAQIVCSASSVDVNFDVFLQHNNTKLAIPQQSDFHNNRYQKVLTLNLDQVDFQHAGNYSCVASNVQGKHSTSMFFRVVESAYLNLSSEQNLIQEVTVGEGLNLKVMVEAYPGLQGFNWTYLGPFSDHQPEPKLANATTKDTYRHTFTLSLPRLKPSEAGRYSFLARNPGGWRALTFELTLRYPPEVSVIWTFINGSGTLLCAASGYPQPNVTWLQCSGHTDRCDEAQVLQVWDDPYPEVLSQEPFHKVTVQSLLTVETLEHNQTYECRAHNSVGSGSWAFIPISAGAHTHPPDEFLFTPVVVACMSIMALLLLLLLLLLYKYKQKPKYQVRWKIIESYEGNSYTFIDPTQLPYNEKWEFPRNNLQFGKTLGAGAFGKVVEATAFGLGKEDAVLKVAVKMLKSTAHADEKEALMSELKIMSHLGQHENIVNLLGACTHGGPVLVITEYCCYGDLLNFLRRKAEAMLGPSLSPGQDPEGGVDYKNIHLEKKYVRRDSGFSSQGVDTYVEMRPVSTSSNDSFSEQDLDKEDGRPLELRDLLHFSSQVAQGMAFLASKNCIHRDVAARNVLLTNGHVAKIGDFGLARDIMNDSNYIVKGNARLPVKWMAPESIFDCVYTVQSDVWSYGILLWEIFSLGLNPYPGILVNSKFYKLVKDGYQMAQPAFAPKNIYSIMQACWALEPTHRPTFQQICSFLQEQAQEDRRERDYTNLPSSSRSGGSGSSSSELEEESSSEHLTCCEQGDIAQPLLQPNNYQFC

| inhibition at 0.1 µM [%] | inhibition at 1 µM [%] | IC50 [µM] | Compound |
| --- | --- | --- | --- |
| 36 | 70 | – | CONC(=O)c1cn(-c2ccc3c(c2)CCC3)c2nc(NCCCn3ccnc3)ncc2c1=O [Cpd 19, 2-(3-Imidazol-1-yl-propylamino)-8-indan-5-yl-5-oxo-5,8-dihydro-pyrido[2,3-d]pyrimidine-6-carboxylic acid methoxy-amide] |
| 23 | 53 | – | CONC(=O)c1cn(C2CCCCC2)c2nc(NCc3cc(OC)cc(OC)c3)ncc2c1=O [Cpd 52, 8-Cyclohexyl-2-(3,5-dimethoxy-benzylamino)-5-oxo-5,8-dihydro-pyrido[2,3-d]pyrimidine-6-carboxylic acid methoxy-amide] |
| – | – | 2.6 | NC(=O)c1cn(-c2ccc3c(c2)CCC3)c2nc(NCCCN3CCOCC3)ncc2c1=O [Cpd 5] |
| 51 | 65 | – | COCCNc1ncc2c(=O)c(C(=O)NOC)cn(-c3ccc4c(c3)CCC4)c2n1 [Cpd 23, 8-Indan-5-yl-2-(2-methoxy-ethylamino)-5-oxo-5,8-dihydro-pyrido[2,3-d]pyrimidine-6-carboxylic acid methoxy-amide] |
| 50 | 82 | – | COCCCNc1ncc2c(=O)c(C(=O)NOC)cn(-c3ccc4c(c3)CCC4)c2n1 [Cpd 21, 8-Indan-5-yl-2-(3-methoxy-propylamino)-5-oxo-5,8-dihydro-pyrido[2,3-d]pyrimidine-6-carboxylic acid methoxy-amide] |
| 22 | 65 | – | CN(C)CCCNc1ncc2c(=O)c(C(N)=O)cn(C3CCCCC3)c2n1 [Cpd 29, 8-Cyclohexyl-2-(3-dimethylamino-propylamino)-5-oxo-5,8-dihydro-pyrido[2,3-d]pyrimidine-6-carboxylic acid amide] |
| 16 | 41 | – | COCCNc1ncc2c(=O)c(C(N)=O)cn(-c3ccc4c(c3)CCC4)c2n1 [Cpd 10, 8-Indan-5-yl-2-(2-methoxy-ethylamino)-5-oxo-5,8-dihydro-pyrido[2,3-d]pyrimidine-6-carboxylic acid amide] |
| 3 | 21 | – | CNC(=O)c1cn(C2CCCCC2)c2nc(NCc3cc(OC)cc(OC)c3)ncc2c1=O [Cpd 61, 8-Cyclohexyl-2-(3,5-dimethoxy-benzylamino)-5-oxo-5,8-dihydro-pyrido[2,3-d]pyrimidine-6-carboxylic acid methylamide] |
| 3 | 20 | – | CONC(=O)c1cn(C2CCCCC2)c2nc(NCCN3CCCCC3)ncc2c1=O [Cpd 50, 8-Cyclohexyl-5-oxo-2-(2-piperidin-1-yl-ethylamino)-5,8-dihydro-pyrido[2,3-d]pyrimidine-6-carboxylic acid methoxy-amide] |
| 10 | 47 | – | COc1cc(CNc2ncc3c(=O)c(C(N)=O)cn(C4CCCCC4)c3n2)cc(OC)c1 [Cpd 40, 8-Cyclohexyl-2-(3,5-dimethoxy-benzylamino)-5-oxo-5,8-dihydro-pyrido[2,3-d]pyrimidine-6-carboxylic acid amide] |
| 15 | 36 | – | CNC(=O)c1cn(-c2ccc3c(c2)CCC3)c2nc(NCCc3ccc(OC)cc3)ncc2c1=O [Cpd 17, 8-Indan-5-yl-2-[2-(4-methoxy-phenyl)-ethylamino]-5-oxo-5,8-dihydro-pyrido[2,3-d]pyrimidine-6-carboxylic acid methylamide] |
| – | – | 7.1 | CN(C)CCCNc1ncc2c(=O)c(C(N)=O)cn(-c3ccc4c(c3)CCC4)c2n1 [Cpd 6, 2-(3-Dimethylamino-propylamino)-8-indan-5-yl-5-oxo-5,8-dihydro-pyrido[2,3-d]pyrimidine-6-carboxylic acid amide] |
